One assay has as its target Mtb20SOG (Mycobacterium tuberculosis, UniProt P9WHT9). As to the kind of experiment: biochemical.
The target of assay [1] is Human Constitutive (Hu C-20S) β5 Active Subunit (Homo sapiens, UniProt P28074). As to the kind of experiment: IC50 determination, human constitutive 20S proteasome β5c (suc-LLVY-AMC hydrolysis). Type of assay: biochemical.
Setting [2] is: Table 2, several values in a cell are repeat determinations.
Where [3] appears, read: Table 2, several values in a cell are repeat determinations, read-out: Hu c-20S IC50.
The mark [4] stands for this setting: Table 3, IC50 against human constitutive β5 active subunit, read-out: Hu-C20S β5.

Several values for one entry are separate records, joined by “and”; a condition that tells them apart may be missing. Equal entries are not always repeated. Where two headings read alike, the source gives them in different places.

Mtb20SOG, sequence (P9WHT9 58-291): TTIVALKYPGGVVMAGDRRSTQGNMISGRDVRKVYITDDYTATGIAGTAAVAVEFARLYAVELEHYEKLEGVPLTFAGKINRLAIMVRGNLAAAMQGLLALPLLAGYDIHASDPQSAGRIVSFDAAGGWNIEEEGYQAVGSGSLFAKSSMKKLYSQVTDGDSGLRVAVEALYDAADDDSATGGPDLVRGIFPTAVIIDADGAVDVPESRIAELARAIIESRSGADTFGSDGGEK

Consider `Cc1cc(C(=O)N[C@@H](CC(=O)N2CCCCC2C)C(=O)N(C)[C@@H](C)C(=O)NCc2ccc(F)cc2F)no1` (some centres unmarked), for which the IC50 against Mtb20SOG (setting [2]) came to 10 µM; in assay [1] (setting [3]), 19 µM.
`C[C@H](NC(=O)[C@H](CC(=O)N1CCCC[C@@H]1C)NC(=O)CCc1ccccc1)C(=O)NCc1cccc(NC(=O)OC(C)(C)C)c1`: the results for the IC50 (on Mtb20SOG (setting [2]); in assay [1] (setting [3])) were 24.7 µM and 50.2 µM, respectively.
On the same counts, the results for `C[C@H](NC(=O)[C@H](CC(=O)N1CCCC[C@@H]1C)NC(=O)CCc1ccccc1)C(=O)NCc1cccc(N)c1` are 0.005 µM and 0.69 µM.
Consider `CCC1CCCCN1C(=O)CC(NC(=O)C1CC1c1ccccc1)C(=O)NC(C)c1nc2c(F)cccc2[nH]1` (centres unmarked), for which the IC50 was found to be 0.051 µM against Mtb20SOG and 8.14 µM in assay [1] (setting [3]).
Regarding `Cc1cc(C(=O)NC(CC(=O)N2CCCCC2C)C(=O)NC(C)c2ncc(-c3ccccc3)[nH]2)no1` (mixture of isomers) [CF-503094], the IC50 against Mtb20SOG was 0.471 µM and 0.726 µM; in assay [1] (setting [3]), 12 µM and 11 µM.
Regarding `C[C@H](NC(=O)[C@H](CC(=O)N1CCCC[C@@H]1C)NC(=O)C1CC(C)(C)C1)c1nc2c(F)cccc2[nH]1` (single isomer, unassigned) [CF-503465], the IC50 at Mtb20SOG (setting [2]) was 0.025 µM and 0.032 µM; in assay [1] (setting [3]), 7.62 µM and 1.92 µM.
Turning to `C[C@H](NC(=O)[C@H](CC(=O)N1CCCC[C@@H]1C)Nc1nc2ccccc2o1)c1ncc(-c2ccc(F)cc2F)[nH]1` [CEN-109, (S)-2-(Benzo[d]oxazol-2-ylamino)-N—((S)-1-(5-(2,4-difluorophenyl)-1H-imidazol-2-yl)ethyl)-4-((S)-2-methylpiperidin-1-yl)-4-oxobutanamide], the IC50 in assay [1] (setting [4]) amounted to 7.3 µM.
Same read-out and setting: as for `C[C@H](NC(=O)[C@H](CC(=O)N1CCCC[C@@H]1C)NS(=O)(=O)c1ccccc1)c1ncc(-c2ccc(F)cc2F)[nH]1` [CEN-110, (S)—N—((S)-1-(5-(2,4-Difluorophenyl)-1H-imidazol-2-yl)ethyl)-4-((S)-2-methylpiperidin-1-yl)-4-oxo-2-(phenylsulfonamido)butanamide], the figure is 8.1 µM.
The same measure, in the same setting: as for `CC(C)CCC(=O)N[C@@H](CC(=O)N1CCCC[C@@H]1C(F)(F)F)C(=O)N[C@@H](C)c1ncc(-c2ccc(F)cc2F)[nH]1` [CEN-111, N—((S)-1-(((S)-1-(5-(2,4-Difluorophenyl)-1H-imidazol-2-yl)ethyl)amino)-1,4-dioxo-4-((R)-2-(trifluoromethyl)piperidin-1-yl)butan-2-yl)-4-methylpentanamide], the figure is 4.9 µM; as for `C[C@H](NC(=O)[C@H](CC(=O)N1CCCC[C@@H]1C)NS(=O)(=O)Cc1ccccc1)c1ncc(-c2ccc(F)cc2F)[nH]1` [CEN-112, (S)—N—((S)-1-(5-(2,4-Difluorophenyl)-1H-imidazol-2-yl)ethyl)-4-((S)-2-methylpiperidin-1-yl)-4-oxo-2-((phenylmethyl)sulfonamido)butanamide], 6.1 µM.
On the same count and under the same terms, as for `Cc1ccc(S(=O)(=O)N[C@@H](CC(=O)N2CCCC[C@@H]2C)C(=O)N[C@@H](C)c2ncc(-c3ccc(F)cc3F)[nH]2)cc1` [CEN-113, (S)—N—((S)-1-(5-(2,4-Difluorophenyl)-1H-imidazol-2-yl)ethyl)-2-((4-methylphenyl)sulfonamido)-4-((S)-2-methylpiperidin-1-yl)-4-oxobutanamide], the figure is 6.5 µM; as for `CC(C)CCS(=O)(=O)N[C@@H](CC(=O)N1CCCC[C@@H]1C)C(=O)N[C@@H](C)c1ncc(-c2ccc(F)cc2F)[nH]1` [CEN-114, (S)—N—((S)-1-(5-(2,4-Difluorophenyl)-1H-imidazol-2-yl)ethyl)-2-((3-methylbutyl)sulfonamido)-4-((S)-2-methylpiperidin-1-yl)-4-oxobutanamide], 9.7 µM.
On to `Cc1cc(C(=O)N[C@@H](CC(=O)N2CCC[C@@H]2c2ccccc2)C(=O)N[C@@H](C)c2ncc(-c3ccc(F)cc3F)[nH]2)no1` [CEN-115, N—((S)-1-(((S)-1-(5-(2,4-Difluorophenyl)-1H-imidazol-2-yl)ethyl)amino)-1,4-dioxo-4-((R)-2-phenylpyrrolidin-1-yl)butan-2-yl)-5-methylisoxazole-3-carboxamide], for which, in assay [1] (setting [4]), the IC50 was more than 100 µM.
On the same count and under the same terms, as for `Cc1cc(C(=O)N[C@@H](CC(=O)N2CCCC[C@@H]2C)C(=O)N[C@@H](C)c2ncc(-c3ccccc3)[nH]2)no1` [CEN-116, 5-Methyl-N—((S)-4-((S)-2-methylpiperidin-1-yl)-1,4-dioxo-1-(((S)-1-(5-phenyl-1H-imidazol-2-yl)ethyl)amino)butan-2-yl)isoxazole-3-carboxamide], the figure is 9.5 µM; as for `Cc1cc(C(=O)N[C@@H](CC(=O)N2CCCCC2C)C(=O)N[C@@H](C)c2ncc(-c3ccccc3)[nH]2)no1` (stereo partly drawn) [CEN-117, 5-Methyl-N-((2S)-4-(2-methylpiperidin-1-yl)-1,4-dioxo-1-(((S)-1-(5-phenyl-1H-imidazol-2-yl)ethyl)amino)butan-2-yl)isoxazole-3-carboxamide], 11 µM; as for `Cc1cc(C(=O)N[C@@H](CC(=O)N2CCCC[C@@H]2C)C(=O)N[C@@H](C)c2ncc(-c3ccccc3F)[nH]2)no1` [CEN-118, N—((S)-1-(((S)-1-(5-(2-Fluorophenyl)-1H-imidazol-2-yl)ethyl)amino)-4-((S)-2-methylpiperidin-1-yl)-1,4-dioxobutan-2-yl)-5-methylisoxazole-3-carboxamide], 15.8 µM.
Same read-out and setting: as for `Cc1cc(C(=O)N[C@@H](CC(=O)N2CCCC[C@@H]2C)C(=O)N[C@@H](C)c2ncc(-c3ccc(F)cc3)[nH]2)no1` [CEN-119, N—((S)-1-(((S)-1-(5-(4-Fluorophenyl)-1H-imidazol-2-yl)ethyl)amino)-4-((S)-2-methylpiperidin-1-yl)-1,4-dioxobutan-2-yl)-5-methylisoxazole-3-carboxamide], the figure is 18 µM; as for `Cc1cc(C(=O)N[C@@H](CC(=O)N2CCC[C@@H]2c2ccccc2)C(=O)N[C@@H](C)c2ncc(-c3ccccc3)[nH]2)no1` [CEN-120, N—((S)-1,4-Dioxo-1-(((S)-1-(5-phenyl-1H-imidazol-2-yl)ethyl)amino)-4-((R)-2-phenylpyrrolidin-1-yl)butan-2-yl)-5-methylisoxazole-3-carboxamide], more than 100 µM; as for `C[C@H](NC(=O)[C@H](CC(=O)N1CCC[C@@H]1c1ccccc1)NC(=O)CC1CC1)c1ncc(Cc2ccccc2)[nH]1` [CEN-121, (S)—N—((S)-1-(5-Benzyl-1H-imidazol-2-yl)ethyl)-2-(2-cyclopropylacetamido)-4-oxo-4-((R)-2-phenylpyrrolidin-1-yl)butanamide], 10.6 µM.
The same measure, in the same setting: as for `C[C@H](NC(=O)[C@H](CC(=O)N1CCCC[C@@H]1C)NC(=O)CC1CCOCC1)c1ncc(Cc2ccccc2)[nH]1` [CEN-122, (S)—N—((S)-1-(5-Benzyl-1H-imidazol-2-yl)ethyl)-4-((S)-2-methylpiperidin-1-yl)-4-oxo-2-(2-(tetrahydro-2H-pyran-4-yl)acetamido)butanamide], the figure is 13.5 µM.
On to `Cc1cc(C(=O)N[C@@H](CC(=O)N2CCC[C@@H]2c2ccccc2)C(=O)N[C@@H](C)c2ncc(Cc3ccccc3)[nH]2)no1` [CEN-123, N—((S)-1-(((S)-1-(5-Benzyl-1H-imidazol-2-yl)ethyl)amino)-1,4-dioxo-4-((R)-2-phenylpyrrolidin-1-yl)butan-2-yl)-5-methylisoxazole-3-carboxamide], for which, in assay [1] (setting [4]), the IC50 was 7.4 µM.
Same read-out and setting: as for `C[C@H](NC(=O)[C@H](CC(=O)N1CCCC[C@@H]1C)NC(=O)CC1CC1)c1ncc(Cc2ccccc2)[nH]1` [CEN-124, (S)—N—((S)-1-(5-Benzyl-1H-imidazol-2-yl)ethyl)-2-(2-cyclopropylacetamido)-4-((S)-2-methylpiperidin-1-yl)-4-oxobutanamide], the figure is 10.4 µM; as for `C[C@H](NC(=O)[C@H](CC(=O)N1CCC[C@@H]1c1ccccc1)Nc1nc2ccccc2o1)c1ncc(-c2ccccc2F)[nH]1` [CEN-125, (S)-2-(benzo[d]oxazol-2-ylamino)-N—((S)-1-(5-(2-fluorophenyl)-1H-imidazol-2-yl)ethyl)-4-oxo-4-((R)-2-phenylpyrrolidin-1-yl)butanamide], 20.6 µM.
With `Cc1cc(C(=O)N[C@@H](CC(=O)N2CCCC[C@@H]2C)C(=O)N[C@@H](C)c2ncc(-c3ccccc3)[nH]2)no1` [CF-503102], the IC50 was 0.717 µM and 0.44 µM against Mtb20SOG (setting [2]); 14 µM and 10 µM in assay [1] (setting [3]).
As to `Cc1cc(C(=O)N[C@@H](CC(=O)N2CCCC[C@@H]2C)C(=O)N[C@@H](C)c2ncc(-c3ccccc3F)[nH]2)no1` [CF-503103], the IC50 against Mtb20SOG is 0.16 µM and 0.306 µM; in assay [1] (setting [3]), more than 15 µM.
`Cc1cc(C(=O)N[C@@H](CC(=O)N2CCCC[C@@H]2C)C(=O)N[C@@H](C)c2ncc(-c3ccc(F)cc3)[nH]2)no1` [CF-503105]: the IC50 was 0.259 µM and 0.256 µM at Mtb20SOG; > 18 µM and 19 µM in assay [1] (setting [3]).
Compound `Cc1cc(C(=O)N[C@@H](CC(=O)N2CCC[C@@H]2c2ccccc2)C(=O)N[C@@H](C)c2ncc(-c3ccccc3F)[nH]2)no1` [CF-503108] yielded an IC50 against Mtb20SOG of 0.013 µM.
On the same count and under the same terms, as for `CC(C)CCC(=O)N[C@@H](CC(=O)N1CCC[C@@H]1c1ccccc1)C(=O)N[C@@H](C)c1nc2ccccc2[nH]1` [CF-503150], the figure is 0.047 µM and 0.045 µM and 0.05 µM and 0.069 µM and 0.059 µM and 0.042 µM.
With `CC[C@H]1CCCCN1C(=O)C[C@H](NC(=O)CCC(C)(C)C)C(=O)N[C@@H](C)c1nc2ccccc2[nH]1` [CF-503217], the IC50 in assay [1] (setting [3]) was 6.85 µM and 8.99 µM.
`CCC1CCCCN1C(=O)CC(NC(=O)CCC(C)C)C(=O)NC1CCCC1c1ncc(-c2ccc(F)cc2F)[nH]1` (centres unmarked) [CF-503292]: the IC50 in assay [1] (setting [3]) was 4.95 µM and 9.23 µM and 8.19 µM and 8.6 µM.
On the same count and under the same terms, as for `C[C@H](NC(=O)[C@H](CC(=O)N1CCCC1)NC(=O)CCc1ccccc1)C(=O)NCc1cccc2cc[nH]c12` [CF-503293], the figure is 4.06 µM and 11.6 µM and 19.1 µM and 36.7 µM.
On to `C[C@H](NC(=O)[C@H](CC(=O)N1CCCC1)NC(=O)CCc1ccccc1)C(=O)NCc1cccc2cn[nH]c12` [CF-503390], for which the IC50 at Mtb20SOG was 0.121 µM and 0.088 µM.
Same read-out and setting: as for `CC[C@H]1CCCCN1C(=O)C[C@H](NC(=O)C1CC2(CCC2)C1)C(=O)N[C@@H](C)c1nc2c(F)cccc2[nH]1` [CF-503458], the figure is 0.007 µM and 0.011 µM; as for `CC(NC(=O)C(CC(=O)N1CCCCC1C)NC(=O)C1CC2(CCC2)C1)c1nc2c(F)cccc2[nH]1` (centres unmarked) [CF-503459], 0.013 µM and 0.02 µM.
In turn, `C[C@H](NC(=O)[C@H](CC(=O)N1CCCC[C@@H]1C)NC(=O)[C@H]1C[C@@H]1c1ccccc1)c1nc2c(F)cccc2[nH]1` [drawing 477] showed an IC50 against Mtb20SOG (setting [2]) of 0.166 µM.

The values above are taken from patent publication US11203613B2, “Peptidomimetic proteasome inhibitors” (CORNELL UNIVERSITY, priority 2017, dated 2021).
